{"source": "patent EP3981777A1", "about": "“ANTIVIRAL COMPOUNDS AND POLYMERS” (priority 2020, dated 2022)", "target": "T1, DC-SIGN (Homo sapiens, UniProt Q9NNX6)", "T1 construct": "host or cells: B-THP-1 (Raji B) cells, DC-SIGN+", "T1 sequence (Q9NNX6 1-404)": "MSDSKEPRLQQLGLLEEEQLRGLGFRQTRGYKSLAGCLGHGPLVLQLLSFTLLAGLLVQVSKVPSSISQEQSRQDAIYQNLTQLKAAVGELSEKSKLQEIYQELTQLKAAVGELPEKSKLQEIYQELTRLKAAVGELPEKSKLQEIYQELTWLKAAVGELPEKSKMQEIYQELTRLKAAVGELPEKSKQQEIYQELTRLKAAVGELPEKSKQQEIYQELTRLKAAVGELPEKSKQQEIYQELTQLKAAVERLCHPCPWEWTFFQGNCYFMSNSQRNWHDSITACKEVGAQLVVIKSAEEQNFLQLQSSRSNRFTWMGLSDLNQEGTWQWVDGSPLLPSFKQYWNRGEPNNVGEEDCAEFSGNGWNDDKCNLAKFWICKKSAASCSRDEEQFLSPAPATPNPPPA", "test": "cell-based", "data": [{"smiles": "CO[C@H]1O[C@H](CO)[C@@H](O)[C@H](O)[C@@H]1O", "note": "[MeMan, methyl α-D-mannoside]", "values": [{"measurement": "IC50", "value": 6.5, "unit": "mM"}]}]}
